In PubChem BioAssay AID493250 (Broad Institute, 2011):
Activity calls are given as the source filed them.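 The calls were made as follows: active = signal decrease with fitted half-maximal dose at or below ten times the highest valid tested dose; inconclusive = poor fit, or flat fit at 30 to 70% inhibition; inactive = the rest.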

Target: Zinc finger protein mex-5 (Caenorhabditis elegans) (UniProt Q9XUB2)
Test: inhibitors of MEX-5 RNA binding, dose response, biochemical, fluorescence polarization, C. elegans, cherry-picked, round 3 (AID 493250)
Details: purified MEX-5-MBP, FITC-TCR2 RNA fluorescence polarization

Zinc finger protein mex-5 (Caenorhabditis elegans), sequence (Q9XUB2 whole entry, looked up): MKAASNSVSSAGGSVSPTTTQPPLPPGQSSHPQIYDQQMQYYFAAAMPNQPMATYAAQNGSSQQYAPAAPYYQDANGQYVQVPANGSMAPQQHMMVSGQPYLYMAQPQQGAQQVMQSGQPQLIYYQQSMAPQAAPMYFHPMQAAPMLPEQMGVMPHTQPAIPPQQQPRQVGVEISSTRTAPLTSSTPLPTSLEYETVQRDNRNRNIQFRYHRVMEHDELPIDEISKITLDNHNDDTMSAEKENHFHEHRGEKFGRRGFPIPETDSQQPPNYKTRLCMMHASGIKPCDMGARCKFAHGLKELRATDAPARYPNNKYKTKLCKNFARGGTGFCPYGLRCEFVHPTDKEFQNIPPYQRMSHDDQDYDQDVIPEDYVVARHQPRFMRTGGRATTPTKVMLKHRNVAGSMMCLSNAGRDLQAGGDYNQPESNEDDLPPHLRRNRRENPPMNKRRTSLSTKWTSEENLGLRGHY

Q: How did the AC50 turn out when `O=[N+]([O-])c1ccccc1NC(=S)N/N=C/c1ccc(O)c(O)c1` was run?
A: 10.4 µM

Q: For `CCC(=O)Oc1ccc2c(c1)O/C(=C\c1ccco1)C2=O`, which AC50 is on record?
A: 5.51 µM

Q: With `N=C1CCC(=N)c2c1c(O)c1ccccc1c2O` as the compound, how does the AC50 read?
A: 6.52 µM

Q: For `COc1ccccc1/C=C/C=C1\Oc2c(ccc(O)c2CN(C)C)C1=O`, which AC50 is on record?
A: 2.28 µM

Q: Which AC50 does the source give for `COc1ccccc1/C=C1\SC(=S)N(CCC(=O)Nc2cc(C)on2)C1=O` here?
A: > 10 µM (inactive)

Q: `Cc1ccc2c(c1)c1nc3ccccc3nc1n2C` was tested. Which AC50 did it give?
A: 6.78 µM

Q: Which AC50 does the source give for `Cc1cc2c(C)nc(N/N=C/c3ccc([N+](=O)[O-])cc3)nc2o1` here?
A: 6.83 µM

Q: With `Cc1nc2nc(-c3ccc(Cl)cc3)cn2nc1C` as the compound, how does the AC50 read?
A: 9.89 µM

Q: Which AC50 does the source give for `CCN(CC)Cc1c(O)ccc2c1O/C(=C\C=C\c1ccccc1)C2=O` here?
A: 4.38 µM

Q: How did the AC50 turn out when `Cc1ccc(C(=O)O)cc1-c1ccc(/C=C2\SC(=O)N(CC(=O)Nc3ccccc3)C2=O)o1` was run?
A: 2.74 µM

Same assay, conditions: purified MEX-5-MBP, FITC-TCR2 RNA fluorescence polarization; at 10 µM (top of the series)

Q: With `O=[N+]([O-])c1cc(S(=O)(=O)c2ccc(O)c([N+](=O)[O-])c2)ccc1O` as the compound, how does the “activity change, negative = inhibition” value read?
A: inactive

Q: `CCCCn1c(N)c(N(CCOC)C(=O)c2ccc(Br)o2)c(=O)[nH]c1=O` was tested. Which “activity change, negative = inhibition” value did it give?
A: inactive

Q: With `COc1ccc(C2c3sc(=O)[nH]c3SCC2C(N)=O)cc1` (centres undefined) as the compound, how does the “activity change, negative = inhibition” value read?
A: inactive

Q: With `Cc1ccc(NC(=O)CCC(=O)NNC(=S)Nc2ccc(F)cc2)c(C)c1` as the compound, how does the “activity change, negative = inhibition” value read?
A: inactive

Q: With `COC(=O)CCC(=O)NC(=S)Nc1sc(C)c(C)c1C(N)=O` as the compound, how does the “activity change, negative = inhibition” value read?
A: inactive

Q: With `Nc1nc(N)c2[nH]cnc2n1` as the compound, how does the “activity change, negative = inhibition” value read?
A: inactive

Q: `NC(=O)C(=O)N/N=C1\CCc2ccccc21` was tested. Which “activity change, negative = inhibition” value did it give?
A: inactive

Q: With `COC(=O)COc1ccc2c(c1)O/C(=C\c1cccc([N+](=O)[O-])c1)C2=O` as the compound, how does the “activity change, negative = inhibition” value read?
A: inactive

Q: With `Cn1cc(CNC(=O)C2c3ccccc3Oc3ccccc32)cn1` as the compound, how does the “activity change, negative = inhibition” value read?
A: inactive

Q: For `CC1=Nc2ccc(C)cc2/C1=C/c1c(N)n2c(S(=O)(=O)C(C)C)nsc2nc1=O`, which “activity change, negative = inhibition” value is on record?
A: inactive

Q: With `CC(=O)CCS(=O)(=O)c1ccc(Oc2ccc(S(=O)(=O)CCC(C)=O)cc2)cc1` as the compound, how does the “activity change, negative = inhibition” value read?
A: inactive

Q: `Cc1ccc(O)c(-c2cc(C(=O)Nc3ccc(S(=O)(=O)Nc4nc(C)cc(C)n4)cc3)[nH]n2)c1` was tested. Which “activity change, negative = inhibition” value did it give?
A: inactive

Q: For `O=C(O)c1ccc(NC2=C(Cl)C(=O)c3ccccc3C2=O)cc1`, which “activity change, negative = inhibition” value is on record?
A: inactive

Q: How did the “activity change, negative = inhibition” value turn out when `COc1ccc(NC(=O)c2coc(C)c2)cc1` was run?
A: inactive

Q: How did the “activity change, negative = inhibition” value turn out when `COCCNc1nnc(SCC(=O)NNC(=O)c2ccc([N+](=O)[O-])cc2)s1` was run?
A: inactive

Q: How did the “activity change, negative = inhibition” value turn out when `Cc1cc(C)c2ccc(=S)[nH]c2n1` was run?
A: inactive

Q: With `CCNC(=S)NNC(=O)c1ccccn1` as the compound, how does the “activity change, negative = inhibition” value read?
A: inactive

Q: How did the “activity change, negative = inhibition” value turn out when `Cc1nc2c(N=Nc3ccccc3F)c(N)nn2c(N)c1C#N` was run?
A: inactive

Q: `O=C(NNC(=O)c1ccc(O)c(Cl)c1)c1cccc(S(=O)(=O)N2CCOCC2)c1` was tested. Which “activity change, negative = inhibition” value did it give?
A: inactive

Q: How did the “activity change, negative = inhibition” value turn out when `CN1CN(C)c2cccc3cccc1c23` was run?
A: inactive

Q: With `Cc1c(O)ccc(-c2[nH]ncc2-c2nc3ccccc3s2)c1O` as the compound, how does the “activity change, negative = inhibition” value read?
A: inactive

Q: Which “activity change, negative = inhibition” value does the source give for `COc1ccc(-c2csc(Nc3ccc(S(N)(=O)=O)cc3)n2)cc1OC` here?
A: inactive

Q: With `COc1c(O)ccc(/C=C(\C#N)c2nc3ccccc3[nH]2)c1[N+](=O)[O-]` as the compound, how does the “activity change, negative = inhibition” value read?
A: inactive

Q: Which “activity change, negative = inhibition” value does the source give for `Cn1c(C2=C(O)CN(c3ccccc3)C2=N)nc2ccccc21` here?
A: inactive

Q: Which “activity change, negative = inhibition” value does the source give for `O=C(O)c1ccc(/C=C2\SC(=S)N(Nc3ccccc3)C2=O)cc1` here?
A: inactive

Q: How did the “activity change, negative = inhibition” value turn out when `COc1cc(/C=N/NC(=O)c2ccc(=O)[nH]n2)ccc1O` was run?
A: inactive

Q: `CN(N)N=Nc1nc2c([nH]1)c(=O)n(C)c(=O)n2C` was tested. Which “activity change, negative = inhibition” value did it give?
A: inactive

Q: Which “activity change, negative = inhibition” value does the source give for `O=C(Nc1cccc2ncccc12)c1ccccc1[N+](=O)[O-]` here?
A: inactive

Q: `COc1ccc(NCc2n[nH]c(=O)c3ccccc23)cc1` was tested. Which “activity change, negative = inhibition” value did it give?
A: inactive

Q: How did the “activity change, negative = inhibition” value turn out when `O=C(N/N=C/c1c(O)n(Cc2ccco2)c(=O)[nH]c1=O)c1ccccc1` was run?
A: inactive

Q: For `CC(C)C(=O)OCC(=O)Nc1ccc2c(c1)CCC2`, which “activity change, negative = inhibition” value is on record?
A: inactive

Q: How did the “activity change, negative = inhibition” value turn out when `Cc1c(NC(=O)c2ccc(=O)oc2)c(=O)n(-c2ccccc2)n1C` was run?
A: inactive

Q: How did the “activity change, negative = inhibition” value turn out when `CCc1nnc2c(N(C)C)nc3ccccc3n12` was run?
A: inactive

Q: `O=C(O)c1cccc(NC2=C(Cl)C(=O)c3ccccc3C2=O)c1` was tested. Which “activity change, negative = inhibition” value did it give?
A: inactive

Q: `CC(=O)O[C@@H]1[C@@H](O)[C@@H](O)[C@H](Oc2c(-c3ccc(O)cc3)oc3c(CC=C(C)C)c(O)cc(O)c3c2=O)O[C@H]1C` was tested. Which “activity change, negative = inhibition” value did it give?
A: inactive

Q: `FC(F)(F)c1nc2cc3nc4ccccc4[nH]c3cc2n1` was tested. Which “activity change, negative = inhibition” value did it give?
A: inactive

Q: With `Nc1ccc2oc(-c3ccccc3Cl)cc(=O)c2c1O` as the compound, how does the “activity change, negative = inhibition” value read?
A: inactive

Q: For `Cc1ccc(N/N=C(\C#N)C(=O)c2ccsc2)cc1`, which “activity change, negative = inhibition” value is on record?
A: inactive

Q: How did the “activity change, negative = inhibition” value turn out when `CC(=O)Nc1ccc(/C=C/c2nc(-c3ccccc3O)n[nH]2)cc1` was run?
A: inactive

Q: Which “activity change, negative = inhibition” value does the source give for `CC(=O)c1c2c3c(c(Br)ccc3n(C)c1=O)C(=O)c1ccccc1-2` here?
A: inactive

Q: With `CCCCCOP(=O)(OCCCCC)C1(NS(=O)(=O)c2ccccc2)C=CC(=O)c2ccccc21` (centres undefined) as the compound, how does the “activity change, negative = inhibition” value read?
A: inactive

Q: `CC1CN(Cc2c(O)ccc3c2oc(=O)c2ccccc23)CC(C)O1` (centres undefined) was tested. Which “activity change, negative = inhibition” value did it give?
A: inactive

Q: For `CN1CCc2c(sc(NC(=O)C3CCCN3S(=O)(=O)c3ccc(Cl)s3)c2C(N)=O)C1` (centres undefined), which “activity change, negative = inhibition” value is on record?
A: inactive

Q: How did the “activity change, negative = inhibition” value turn out when `COc1ccc(NC(=S)NNC(=O)C(C)n2nc(C)c([N+](=O)[O-])c2C)cc1` (centres undefined) was run?
A: inactive

Q: For `CC1(C)NC(=O)NC2(C)NC(=O)NC(C)(C)C12` (centres undefined), which “activity change, negative = inhibition” value is on record?
A: inactive

Q: For `CC1CN2C(c3ccc(Cl)cc3)=CSC2=N1` (centres undefined), which “activity change, negative = inhibition” value is on record?
A: inactive

Q: Which “activity change, negative = inhibition” value does the source give for `CC1=CC2=NC(=O)/C(=C\c3ccc(-c4cccc(Cl)c4)o3)C(=N)N2O1` here?
A: inactive

Q: `O=S(=O)(O)c1nc2ccccc2n1Cc1ccc(Cl)cc1Cl` was tested. Which “activity change, negative = inhibition” value did it give?
A: inactive

Q: `O=c1c(OC2OC(CO)C(O)C(O)C2O)c(-c2ccc(O)c(O)c2)oc2cc(O)cc(O)c12` (centres undefined) was tested. Which “activity change, negative = inhibition” value did it give?
A: inactive

Q: With `COc1cc2c(cc1O)CC1c3c(cc(O)c(OC)c3-2)CCN1C` (centres undefined) as the compound, how does the “activity change, negative = inhibition” value read?
A: inactive

Q: How did the “activity change, negative = inhibition” value turn out when `Cn1nc(C(=O)NNC(=O)c2ccc(Cl)cc2)ccc1=O` was run?
A: inactive

Q: How did the “activity change, negative = inhibition” value turn out when `Cc1cc(C(=O)N/N=C/c2ccc(-c3ccc(C)c(Cl)c3)o2)n[nH]1` was run?
A: inactive

Q: `Cc1cc(C)c2ccc(C(=O)O)nc2c1O` was tested. Which “activity change, negative = inhibition” value did it give?
A: inactive

Q: For `COC(=O)c1ccc(CC(=O)c2ccc(O)cc2O)o1`, which “activity change, negative = inhibition” value is on record?
A: inactive

Q: For `O=C(NC1CCSc2ccccc21)c1ccccc1Br` (centres undefined), which “activity change, negative = inhibition” value is on record?
A: inactive

Q: Which “activity change, negative = inhibition” value does the source give for `Cc1cc([N+](=O)[O-])nn1CC(=O)NNC(=S)Nc1ccc(F)cc1` here?
A: inactive

Q: How did the “activity change, negative = inhibition” value turn out when `Cc1cccc(C(=O)NNc2ncnc3c2cnn3C)c1` was run?
A: inactive

Q: `COc1nc(N/N=C/c2ccc(-c3ccccc3[N+](=O)[O-])o2)nc(N2CCOCC2)n1` was tested. Which “activity change, negative = inhibition” value did it give?
A: inactive

Q: `Cc1cc(=O)n2[nH]c(N)c(N=Nc3ccccc3F)c2n1` was tested. Which “activity change, negative = inhibition” value did it give?
A: inactive

Q: How did the “activity change, negative = inhibition” value turn out when `Nc1ccccc1C(=O)NNC(=O)C(=O)/C=C(\O)c1ccccc1` was run?
A: inactive

Q: With `COC(=O)C1=C(C)OC(N)=C(C#N)C1c1cc(OC)c(OCC(N)=O)cc1Cl` (centres undefined) as the compound, how does the “activity change, negative = inhibition” value read?
A: inactive

Q: How did the “activity change, negative = inhibition” value turn out when `CCCOc1ccc([C@@H]2C3CN(C(=O)OCC)CC=C3C(C#N)=C(N)C2(C#N)C#N)cc1OC` (some centres undefined) was run?
A: inactive

Q: Which “activity change, negative = inhibition” value does the source give for `Nc1ccc(Cc2ccc(N)c(C(=O)O)c2)cc1C(=O)O` here?
A: inactive

Q: Which “activity change, negative = inhibition” value does the source give for `Cn1c(O)c(C2=c3ccccc3=NC2=O)[nH]c1=S` here?
A: inactive

Q: With `COc1ccc(N(CCC#N)C(=O)/C(C#N)=C\c2cccs2)cc1` as the compound, how does the “activity change, negative = inhibition” value read?
A: inactive

Q: For `C=CCOc1ccc(C(c2c(C(=O)O)[nH]c3ccccc23)c2c(C(=O)O)[nH]c3ccccc23)cc1`, which “activity change, negative = inhibition” value is on record?
A: inactive

Q: `O=C(O)c1cc(Oc2ccc(C(F)(F)F)cc2Cl)ccc1[N+](=O)[O-]` was tested. Which “activity change, negative = inhibition” value did it give?
A: inactive

Q: With `CN1C(=O)N(C)C(c2cccc([N+](=O)[O-])c2)C2=C1CCCC2=O` (centres undefined) as the compound, how does the “activity change, negative = inhibition” value read?
A: inactive

Q: `Oc1c(Cl)cc(Cl)c2c1NCCC2` was tested. Which “activity change, negative = inhibition” value did it give?
A: inactive

Q: `NC1=NC(=O)/C(=C\c2ccc(O)c([N+](=O)[O-])c2)S1` was tested. Which “activity change, negative = inhibition” value did it give?
A: inactive

Q: With `O=c1nc(-c2ccccc2)c2cc(Br)ccc2[nH]1` as the compound, how does the “activity change, negative = inhibition” value read?
A: inactive

Q: For `COC(=O)c1cccc(-c2ccc(C(c3c(C)[nH][nH]c3=O)c3c(C)[nH][nH]c3=O)o2)c1`, which “activity change, negative = inhibition” value is on record?
A: inactive

Q: With `COc1ccc(/C=C2\CCCc3c2nc2ccc(C)cc2c3C(=O)O)cc1O` as the compound, how does the “activity change, negative = inhibition” value read?
A: inactive

Q: How did the “activity change, negative = inhibition” value turn out when `Cc1ccc(C(=O)NNc2ncnc3c2cnn3C)cc1` was run?
A: inactive
